Reference: US20230078764A1 (Yumanity Therapeutics, Inc., priority 2019, published 2023)

What was measured:
human SCD1 = molecular target: T1, human SCD1 (Homo sapiens, UniProt O00767); assay: Growth inhibition of yeast strain expressing human SCD1 as sole desaturase (OLE1 deleted), OD600 readout; assay type: cell-based; settings: yeast strain expressing human SCD1 as sole desaturase; growth (OD600) after 40 h at 30° C.; read-out: SCD1 IC50
T1 construct: expressed in transfected cells; host or cells: yeast strain with OLE1 deleted, plasmid-borne human SCD1 (selected in SD-Ura)
T1 sequence (O00767 1-359): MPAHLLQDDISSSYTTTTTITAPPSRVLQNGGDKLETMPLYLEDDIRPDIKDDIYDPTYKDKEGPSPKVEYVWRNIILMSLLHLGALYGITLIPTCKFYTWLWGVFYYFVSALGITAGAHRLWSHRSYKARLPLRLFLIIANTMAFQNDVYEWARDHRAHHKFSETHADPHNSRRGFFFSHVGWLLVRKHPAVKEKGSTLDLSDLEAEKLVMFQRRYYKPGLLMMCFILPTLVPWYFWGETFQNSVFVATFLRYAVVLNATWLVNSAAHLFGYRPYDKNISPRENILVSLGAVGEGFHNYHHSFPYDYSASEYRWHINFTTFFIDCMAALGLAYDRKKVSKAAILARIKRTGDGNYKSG

human SCD5 = molecular target: T2, human SCD5 (Homo sapiens, UniProt Q86SK9); assay: Growth inhibition of yeast strain expressing human SCD5 as sole desaturase (OLE1 deleted), OD600 readout; assay type: cell-based; settings: yeast strain expressing human SCD5 as sole desaturase; growth (OD600) after 40 h at 30° C.; read-out: SCD5 IC50
T2 construct: expressed in transfected cells; host or cells: yeast strain with OLE1 deleted, plasmid-borne human SCD5 (selected in SD-Ura)
T2 sequence (Q86SK9 1-330): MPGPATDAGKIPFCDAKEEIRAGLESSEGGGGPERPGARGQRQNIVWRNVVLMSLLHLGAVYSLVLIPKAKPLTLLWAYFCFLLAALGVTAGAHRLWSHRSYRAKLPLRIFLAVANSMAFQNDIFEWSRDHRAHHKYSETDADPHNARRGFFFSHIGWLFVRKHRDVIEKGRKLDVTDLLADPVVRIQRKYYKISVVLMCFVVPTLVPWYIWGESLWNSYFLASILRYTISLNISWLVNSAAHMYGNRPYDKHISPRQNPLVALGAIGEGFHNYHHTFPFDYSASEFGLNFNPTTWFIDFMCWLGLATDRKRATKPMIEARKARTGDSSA

CCn1cc(C(=O)Nc2ccc(Cc3cccc(F)c3)cn2)cn1 [Compound 355]
IC50 (human SCD1): 0.54 µM | IC50 (human SCD5): 0.16 µM

Cn1cc(C(=O)Nc2ccc(Cc3cccc(F)c3)cn2)cn1 [Compound 356]
IC50 (human SCD1): 0.12 µM | IC50 (human SCD5): 0.04 µM

Cn1cc(NC(=O)c2ccc(Cc3cccc(F)c3)cn2)ccc1=O [Compound 357]
IC50 (human SCD1): 4.06 µM | IC50 (human SCD5): 0.05 µM

O=C(Nc1ccc(Cc2cccc(F)c2)cn1)c1cnc2nsnc2c1 [Compound 358]
IC50 (human SCD1): 6.05 µM | IC50 (human SCD5): 0.17 µM

Cn1cc(-c2cnc(NC(=O)Cc3cccc(F)c3)cn2)ccc1=O [Compound 359]
IC50 (human SCD1): 18.7 µM | IC50 (human SCD5): 3.27 µM

Cn1nc(C(=O)Nc2ccc(CCOc3cccc(F)c3)cn2)ccc1=O [Compound 360]
IC50 (human SCD1): 32.6 µM | IC50 (human SCD5): 6.59 µM

Cn1cc(C(=O)Nc2ccc(OCc3cccc(Cl)c3)cn2)ccc1=O [Compound 361]
IC50 (human SCD1): > 45 µM | IC50 (human SCD5): 2.63 µM

Cn1nc(C(=O)Nc2ccc(CCOc3ccccc3)cn2)ccc1=O [Compound 362]
IC50 (human SCD1): > 45 µM | IC50 (human SCD5): 14.5 µM

Cn1nccc(NC(=O)c2ccc(Cc3cccc(Cl)c3)cn2)c1=O [Compound 363]
IC50 (human SCD1): 3.16 µM | IC50 (human SCD5): 0.13 µM

COc1nccc(C(=O)Nc2ccc(Cc3cccc(F)c3)cn2)n1 [Compound 364]
IC50 (human SCD1): 0.71 µM | IC50 (human SCD5): 0.02 µM

O=C(Nc1ccc(COc2ccc(F)c(Cl)c2)cn1)c1ccc(=O)n(C2CC2)c1 [Compound 365]
IC50 (human SCD1): 25.8 µM | IC50 (human SCD5): 4 µM

O=C(Nc1ccc(Cc2cccc(Cl)c2)cn1)c1ccc(CCO)nc1 [Compound 366]
IC50 (human SCD1): 0.02 µM | IC50 (human SCD5): 0.02 µM

Cn1nc(C(=O)Nc2ccc(Nc3cccc(Cl)c3)cn2)ccc1=O [Compound 367]
IC50 (human SCD1): 25.8 µM | IC50 (human SCD5): 2.98 µM

CC(O)c1ccc(C(=O)Nc2ccc(Cc3cccc(Cl)c3)cn2)cn1 (stereo not shown) [Compound 368]
IC50 (human SCD1): 1.37 µM | IC50 (human SCD5): 0.24 µM

Cn1nc(C(=O)NC2CCC(Oc3cccc(Cl)c3)CC2)ccc1=O (stereo not shown) [Compound 369]
IC50 (human SCD1): > 45 µM | IC50 (human SCD5): 14 µM

CN1N=C(C(=O)Nc2ccc(CC3CCCCC3)cn2)CCC1=O [Compound 370]
IC50 (human SCD1): > 45 µM | IC50 (human SCD5): 6.65 µM

Cn1ccc(C(=O)Nc2ccc(Cc3ccc(F)c(F)c3)cn2)n1 [Compound 371]
IC50 (human SCD1): 0.12 µM | IC50 (human SCD5): 0.01 µM

O=C(Nc1ccc(Cc2cccc(F)c2)cn1)c1ccn(C(F)(F)F)n1 [Compound 372]
IC50 (human SCD1): > 45 µM | IC50 (human SCD5): 0.77 µM

CCn1cc(C(=O)Nc2ccc(Cc3cccc(Cl)c3)cn2)cn1 [Compound 373]
IC50 (human SCD1): 0.3 µM | IC50 (human SCD5): 0.03 µM

CC(C)(O)c1ccc(C(=O)Nc2ccc(Cc3cccc(Cl)c3)cn2)cn1 [Compound 374]
IC50 (human SCD1): 38.5 µM | IC50 (human SCD5): 7.04 µM

O=C(Nc1ccc(CC2CCCCC2)cn1)c1ccc(CO)nc1 [Compound 375]
IC50 (human SCD1): 0.01 µM | IC50 (human SCD5): 0.01 µM

O=C(Nc1ccc(Cc2cccc(F)c2)nn1)c1ccc(=O)n(CC2CC2)n1 [Compound 376]
IC50 (human SCD1): > 45 µM | IC50 (human SCD5): > 45 µM

CN1CC(C(=O)Nc2ncc(Cc3cccc(F)c3)s2)CC1=O (stereo not shown) [Compound 377]
IC50 (human SCD1): > 45 µM | IC50 (human SCD5): > 45 µM

CN1N=C(C(=O)Nc2nc(Cc3ccc(F)cc3)cs2)CCC1=O [Compound 378]
IC50 (human SCD1): > 45 µM | IC50 (human SCD5): > 45 µM

CCn1cc(C(=O)Nc2ccc(Cc3ccc(F)cc3)nn2)ccc1=O [Compound 379]
IC50 (human SCD1): > 45 µM | IC50 (human SCD5): > 45 µM

CN1N=C(C(=O)Nc2ncc(Cc3ccccc3C#N)s2)CCC1=O [Compound 380]
IC50 (human SCD1): > 45 µM | IC50 (human SCD5): > 45 µM

CN1N=C(C(=O)NCc2ccc(Cc3cccc(F)c3)cn2)CCC1=O [Compound 381]
IC50 (human SCD1): > 45 µM | IC50 (human SCD5): > 45 µM

CN1N=C(C(=O)Nc2ccnc(Cc3cccc(Cl)c3)c2)CCC1=O [Compound 382]
IC50 (human SCD1): > 45 µM | IC50 (human SCD5): > 45 µM

CC(C)c1ccc(Cc2ccc(NC(=O)C3=NN(C)C(=O)CC3)nc2)cc1 [Compound 383]
IC50 (human SCD1): > 45 µM | IC50 (human SCD5): > 45 µM

Cn1nc(C(=O)Nc2ccc(Cc3cc(F)cc(Cl)c3)nn2)ccc1=O [Compound 384]
IC50 (human SCD1): > 45 µM | IC50 (human SCD5): > 45 µM

CN1N=C(C(=O)Nc2ncc(COc3cccc(Cl)c3)s2)CCC1=O [Compound 385]
IC50 (human SCD1): > 45 µM | IC50 (human SCD5): > 45 µM

O=C(Nc1ncc(Cc2cccc(F)c2)s1)C1=NN(CCF)C(=O)CC1 [Compound 386]
IC50 (human SCD1): > 45 µM | IC50 (human SCD5): > 45 µM
